{"source": "patent US12429487B2", "about": "“Neurofilament protein for guiding therapeutic intervention in amyotrophic lateral sclerosis” (Biogen MA Inc., priority 2018, dated 2025)", "key": {"ALS patients": {"test_system": "ALS patients", "conditions": "EMPOWER, 12 months, vs placebo", "text": "EMPOWER was a Phase 3 global randomized clinical trial (RCT) of the safety and efficacy of dexpramipexole in the treatment of ALS conducted at 81 academic medical centers enrolling 943 adults (see Cudkowicz M E et al., Lancet Neurol. 2013 November; 12(11):1059-67).\nThe subjects included in the EMPOWER study had to have a diagnosis of possible, probable, or definite ALS, have had ALS symptoms for fewer than 24 months, have an SVC value that was at least 65% of the predicted value, and no significant comorbidities.\nIn the study, the subjects were allocated in a 1:1 ratio to treatment with dexpramipexole or placebo for 12 months, […]"}, "[1]": {"test_system": "plasma neurofilament heavy chain (NFH)", "conditions": "EMPOWER, vs placebo, FIG. 2", "source_text": "Determination of baseline as well as longitudinal plasma neurofilament heavy chain (NFH) concentrations in the clinical trial of dexpramipexole, EMPOWER, and assessment of their relationship to clinical outcomes including survival and the rates of decline of muscle strength (assessed by hand-held dynamometry [HHD]), slow vital capacity (SVC), and ALSFRS-R).\nPlasma neurofilament heavy (NFH), measured using a NFH assay on the Ella, an automated microfluidic cartridge based immunoassay platform from Protein Simple."}, "people with ALS": {"test_system": "people with ALS", "conditions": "cited from earlier work"}, "SOD1 mRNA": {"test_system": "SOD1 mRNA", "test": "SOD1 mRNA lowering in human neuroblastoma cell line SH-SY5Y", "type": "cell-based", "conditions": "SH-SY5Y cells"}, "SOD1^G93A rats": {"test_system": "SOD1^G93A rats", "test": "SOD1^G93A rats: weight loss onset and survival after intrathecal bolus", "type": "in vivo, rat", "conditions": "1000 μg intrathecal bolus, 65-day-old rats", "experimental": "SOD1^G93A rats (Taconic Biosciences, model 2148) received a 30-μl intrathecal bolus injection via polyethylene catheter placed between the L3 and L5 vertebrae of the lumber spinal cord. […] All ASOs were diluted in aCSF. All treatment groups were sexual phenotype- and litter-matched to control for drift in copy count or sexual phenotype-induced variances."}, "SOD1^G93A mice [2]": {"test_system": "SOD1^G93A mice", "test": "SOD1^G93A mice: weight, rotarod, survival after i.c.v. bolus", "type": "in vivo, mouse", "conditions": "300 μg bolus at 50 and 94 days of age", "experimental": "To investigate whether a SOD1-lowering ASO strategy could delay disease parameters, SOD1^G93A mice (B6.CgTg(SOD1*G93A)Gur/J) were infused Intracerebroventricular […] with bolus doses of 300 μg ASO1 at 50 and 94 days of age. Weight and performance on rotarod were tested weekly."}, "SOD1^G93A mice [3]": {"test_system": "SOD1^G93A mice", "test": "SOD1^G93A mice: CMAP and neuromuscular junction innervation", "type": "in vivo, mouse", "conditions": "for compound muscle action potential (CMAP): 100 μg intraventricularly once at 5 weeks of age, next 12 weeks", "text": "To test whether SOD1 reduction by ASO could affect markers of disease, […] in compound muscle action potential (CMAP), neuromuscular junction innervation, and serum phospho-neurofilament heavy chain (pNfH) levels. In SOD1^G93Amice, CMAP declines over time, preceding the loss of motor neurons."}, "[4]": {"test_system": "serum phospho-neurofilament heavy chain (pNfH)", "test": "SOD1^G93A mice: serum pNfH by ELLA microfluidic ELISA", "type": "in vivo, mouse", "conditions": "single dose 300 μg at 5 weeks; 8 and 10 weeks of age; vs control ASO, FIG. 4", "experimental": "pNfH increases in CSF and serum in ALS rodent models, human patients with ALS, and other neurodegenerative diseases. To look at phosphorylated neurofilament heavy chain levels in the serum, blood was collected at baseline (5 weeks) before i.e.v. injection, and then again at 8 and 10 weeks of age from the SOD1^G93A mutant mice injected once at 5 weeks of age with a single dose of 300 μg ASO1). pNfH serum levels were measured through the ELLA microfluidic ELISA platform (Protein Simple) according to the manufacturer's instructions. Briefly, a maximum of 100 μl blood was collected through facial vein puncture at the indicated time points. Serum samples were prepared by centrifugation of BD Vacutainer SST tubes (BD Diagnostics) and stored at −80° C. until used."}, "CSF SOD1 protein": {"test_system": "CSF SOD1 protein", "test": "SAD/MAD clinical trial in SOD1 ALS patients: CSF SOD1 concentration", "type": "in vivo, human", "conditions": "40 mg, 60 mg and 100 mg cohorts; maximal at 100 mg, Day 85", "experimental": "(§1) A double-blind, randomized, placebo-controlled, clinical trial was conducted in SOD1 ALS patients. The trial involved single and multiple ascending dose (SAD/MAD) studies. In the MAD portion, participants received 5 doses of study drug over approximately 3 months. Fifty adult participants with SOD1 mutation were randomized 3:1 (ASO: placebo) per cohort to receive 20 mg, 40 mg, 60 mg, or 100 mg of placebo or a SOD-1 decreasing ASO-ASO1 (SEQ ID NO:8)."}, "SOD1 ALS patients": {"test_system": "SOD1 ALS patients", "test": "SAD/MAD clinical trial in SOD1 ALS patients: ALSFRS-R and SVC", "type": "in vivo, human", "conditions": "vs placebo", "experimental": "as §1"}, "pNfH and NfL": {"test_system": "pNfH and NfL", "test": "SAD/MAD clinical trial in SOD1 ALS patients: plasma and CSF pNfH and NfL", "type": "in vivo, human", "experimental": "as §1\nBaseline pNfH and NfL levels were highest in fast progressing patients and correlated with disease activity (as measured by ALSFRS-R prerandomization slope). […] In FIGS. 7A-7D, overall placebo (n=12) is the solid line at, near, or above the 1.0 baseline measure throughout the study; overall ASO1 100 mg treatment (n=10) is the solid line declining below the 1.0 baseline measure throughout the study; fast progressing placebo (n=4) is the dotted line at, near, or above the 1.0 baseline measure throughout the study; and fast progressing ASO1 100 mg treatment (n=4) is the dotted line declining below the 1.0 baseline measure throughout the study. pNfH levels were assessed using the ProteinSimple™ Simple Plex Ella immunoassay. NfL levels were assessed using the Quanterix Simoa NfL Advantage assay."}}, "note": "“Also recorded” adds a separate entry of the source. Like-named read-outs stand apart in the source and are kept apart here. Oligonucleotides are written 5' to 3', each unit as a sugar letter and its base; * is a phosphorothioate linkage, no mark a phosphodiester; rarer units and linkages stand in square brackets, end groups in braces. Plain capitals give the bases only. e = 2'-O-(2-methoxyethyl) (MOE); k = constrained ethyl (cEt); [5mC] = 5-methylcytosine; d = 2'-deoxy (DNA)", "data": [{"compound": "CCCN[C@@H]1CCc2nc(N)sc2C1", "note": "[dexpramipexole]", "values": [{"measurement": "ALS symptoms / clinical efficacy", "setting": "ALS patients; listed as depramipexole", "result": "did not reduce ALS symptoms"}, {"measurement": "ALS symptoms / clinical efficacy", "setting": "ALS patients; listed as dexpramiexole", "result": "without clinical efficacy"}, {"measurement": "longitudinal plasma NFH course", "setting": "[1]", "result": "no difference"}]}, {"compound": "Nc1nc2ccc(OC(F)(F)F)cc2s1", "note": "[riluzole]", "values": [{"measurement": "disease progression / decline in daily functioning", "setting": "people with ALS", "result": "appears to slow the disease's progression in some people with ALS"}, {"measurement": "side effects", "setting": "people with ALS", "result": "dizziness, gastrointestinal conditions and liver function changes"}]}, {"compound": "CC1=NN(c2ccccc2)C(=O)C1", "note": "[edaravone]", "values": [{"measurement": "disease progression / decline in daily functioning", "setting": "people with ALS", "result": "reduction the decline in daily functioning"}, {"measurement": "side effects", "setting": "people with ALS", "result": "bruising, gait disturbance, hives, swelling and shortness of breath"}]}, {"compound": "TToAoATGTTTATCAoGoGAT (antisense eT*eTeAeA*dT*dG*dT*dT*dT*dA*dT*d[5mC]*kAkGeG*eA*eT) [ASO2]", "values": [{"measurement": "SOD1 mRNA", "setting": "SOD1 mRNA", "result": "potently lowered SOD1 mRNA in a dose-dependent manner"}, {"measurement": "maintained weight, days longer than aCSF", "setting": "SOD1^G93A rats", "result": 67, "unit": "days"}]}, {"compound": "CCGTCGCCCTTCAGCACGCA (antisense e[5mC]*e[5mC]*eG*eT*e[5mC]*dG*d[5mC]*d[5mC]*d[5mC]*dT*dT*d[5mC]*dA*dG*d[5mC]*eA*e[5mC]*eG*e[5mC]*eA) [compound 333611, reference compound]", "values": [{"measurement": "onset of weight loss, median", "setting": "SOD1^G93A rats", "result": 139, "unit": "days"}]}, {"compound": "CAoGGoATACATTTCTACoAGoCT (antisense CAGGATACATTTCTACAGCT; modified backbone linkages at marked places, type not given here) [ASO1]", "values": [{"measurement": "SOD1 mRNA", "setting": "SOD1 mRNA", "result": "potently lowered SOD1 mRNA in a dose-dependent manner"}, {"measurement": "maintained weight, days longer than inactive ASO", "setting": "SOD1^G93A mice [2]", "result": 26, "unit": "days"}, {"measurement": "median survival longer compared with inactive ASO", "setting": "SOD1^G93A mice [2]", "result": 37, "unit": "days"}, {"measurement": "extension of survival", "setting": "SOD1^G93A mice [2]; vs inactive ASO", "result": 22, "unit": "%"}, {"measurement": "performance on rotarod", "setting": "SOD1^G93A mice [2]; vs inactive ASO", "result": "performed better on rotarod"}, {"measurement": "maintained weight, days longer than aCSF", "setting": "SOD1^G93A rats", "result": 70, "unit": "days"}, {"measurement": "compound muscle action potential (CMAP)", "setting": "SOD1^G93A mice [3]", "result": "maintained CMAP"}, {"measurement": "innervation of the tibialis anterior muscles", "setting": "SOD1^G93A mice [3]; single dose 300 μg at 5 weeks of age, FIG. 3", "result": "maintained innervation"}, {"measurement": "serum pNfH levels", "setting": "[4]", "result": "lower levels of pNfH"}, {"measurement": "CSF SOD1 concentrations, change from baseline", "setting": "CSF SOD1 protein", "result": "Reductions from baseline"}, {"measurement": "clinical decline", "setting": "SOD1 ALS patients; patients with fast-progressing SOD1 mutations", "result": "slowing of clinical decline"}, {"measurement": "functional decline (ALSFRS-R)", "setting": "SOD1 ALS patients; FIG. 6A", "result": "slowing of functional decline"}, {"measurement": "decline in respiratory function (SVC)", "setting": "SOD1 ALS patients; FIG. 6B", "result": "slowing of decline in respiratory function"}, {"measurement": "plasma pNfH levels", "setting": "pNfH and NfL; 100 mg over time vs placebo, FIG. 7A", "result": "reduction"}, {"measurement": "plasma NfL levels", "setting": "pNfH and NfL; 100 mg over time vs placebo, FIG. 7B", "result": "reduction"}, {"measurement": "CSF NfL levels", "setting": "pNfH and NfL; 100 mg over time vs placebo, FIG. 7D", "result": "reduction"}, {"measurement": "CSF pNfH levels", "setting": "pNfH and NfL; 100 mg vs placebo, overall", "result": "Lowering of CSF pNfH; also recorded: reduction"}, {"measurement": "CSF pNfH levels", "setting": "pNfH and NfL; patients with fast-progressing SOD1 mutations, vs placebo", "result": "reduction in CSF pNfH levels"}]}, {"compound": "CCoToAoTAGGACTATCCAoGoGoAA (antisense CCTATAGGACTATCCAGGAA; chemically modified at marked places, type not given here) [Inactive ASO (in vivo), reference compound]", "values": [{"measurement": "compound muscle action potential (CMAP)", "setting": "SOD1^G93A mice [3]", "result": "reduced by more than half"}, {"measurement": "denervation of muscle endplates", "setting": "SOD1^G93A mice [3]; tibialis anterior, FIG. 3", "result": "more than 75%"}]}]}
